Patent US9988348B1, “Synthesis and antimicrobial use of a trithiocarbonate derivative” (KING SAUD UNIVERSITY, priority 2017, dated 2018)
Marks after values point to notes of the source that are not given here.

How the values were obtained:
[1] = tested on: Neisseria meningitides ATCC 1302; test: disk diffusion assay, inhibition zone; format: cell-based; details: N. meningitides
[2] = tested on: MCF-7 human breast cancer cell lines; test: in vitro anti-cancer test; format: cell-based; details: water soluble form, 4 to 0.008 mg/mL
Method: Biological activity of compound 4 (water soluble form) as anticancer in human breast cancer was evaluated according to (Kumar et al. 2014). Roswell Park Memorial Institute (RPMI)-1640 medium (Sigma, USA) were prepared according to manufacturer's guidelines and supplemented fetal bovine serum (10%). To avoid a microbial contamination, a streptomycin and penicillin were added to RPMI-1640. Several concentrations ranging from 4 to 0.008 mg/mL of compound 4 were tested.

[3] = biological effects of compound 4 alone in mice (not infected);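 as to daily body weight: compound given twice daily to the uninfected group for 2 weeks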; format: in vivo; design: Total Protein Mean ± SE: unit not given here; details: for daily body weight / % change in daily body weight / Food consumption / Mortality / Water consumption: i.v. 12 mg/kg then 6 mg/ml
Method: The experiment was performed in Experimental Animal Care Center (EACC), College of Pharmacy, King Saud University, Riyadh. Fifty Albino male mice, weighing nearly 30±2 gram were used. The mice were arranged in five groups, each including ten mice caged together, given water, and feed ad libitum. […] The group treated with standard drug (fluconazole) was infected intravenously with 0.2 ml of C. albicans suspension (10^6 CFU/mouse) and treated (orally) by 12 mg/kg of fluconazole (loading dose) on the first day followed by 6 mg/ml for 2 weeks.
The biological parameters included daily body weight (gm), mortality (%), food consumption (g/day/mouse), water consumption (ml/day/mouse), serum glutamic oxaloacetic transaminase [SGOT(AST) (U/L)], serum glutamic-pyruvic transaminase [SGPT(ALT)(U/L)], alkaline phosphatase (U/L), gamma-glutamyl transferase (GGT) (U/L), bilirubin (mg/dl)], cholesterol (mg/dl), triglycerides (mg/dl), high-density lipoprotein (HDL) (mg/dl), very-low-density lipoprotein (VLDL) (mg/dl), low-density lipoprotein (LDL) (mg/dl), lactate dehydrogenase (LDH) (U/L), glucose (mg/dl), total protein (mg/dl), malondialdehyde (MDA) (nmol/g), nonprotein sulfyhydryl (NP-SH) (nmol/g). […] SGOT (AST), SGPT (ALT), ALP, GGT, bilirubin LDH and total protein were estimated using Reflotron Plus Analyzer and Roche kits (Roche Diagnostics GmbH, Mannheim Germany) and United diagnostic kits assay. Hematological tests were performed by Mindray BC-2800VET auto Hematology Analyzer.

[4] = blood, uninfected mice, i.v. 12 mg/kg then 6 mg/ml for 2 weeks
[5] = liver tissue, uninfected mice, i.v. 12 mg/kg then 6 mg/ml for 2 weeks
[6] = serum, uninfected mice, i.v. 12 mg/kg then 6 mg/ml for 2 weeks

Q: Which “biological activity, in words” value [1] does the source give for `CCOC(=O)CSC(=S)SCC(=O)OCC` [Compound 4, diethyl 2,2′-(thiocarbonylbis(sulfanediyl))diacetate] here?
A: very good

Q: And the Inhibition zone diameter ([1]; 4 mg/disk, soluble water compound 4)?
A: 22.6 ± 0.5 C mm

Q: And the “biological activity as anticancer” value [2]?
A: no biological activity

Q: What about the “Eosinophils Mean ± SE” value [3, 4] of the same compound?
A: 2.38 ± 0.09%

Q: And the “HCT Mean ± SE” value [3, 4]?
A: 45.9 ± 1.51^a

Q: What about the “HGB Mean ± SE” value [3, 4] of the same compound?
A: 12.4 ± 0.18^a g/dL

Q: And the “Lymphocytes Mean ± SE” value [3, 4]?
A: 4.8 ± 0.09%

Q: What about the “MCH Mean ± SE” value [3, 4] of the same compound?
A: 39.0 ± 1.0 pg

Q: What about the “MCHC Mean ± SE” value [3, 4] of the same compound?
A: 32.6 ± 0.9 g/dL

Q: What about the “MCV Mean ± SE” value [3, 4] of the same compound?
A: 87.31 ± 1.74 fL

Q: And the “Monocytes Mean ± SE” value [3, 4]?
A: 1.15 ± 0.01%

Q: And the “Neutrophils Mean ± SE” value [3, 4]?
A: 33.3 ± 1.1%

Q: What about the “PLT Mean ± SE” value [3, 4] of the same compound?
A: 670.7 ± 15.3 10^3/mm^3

Q: What about the “RBC Mean ± SE” value [3, 4] of the same compound?
A: 9.26 ± 0.1 10^6/mm^3

Q: And the “WBC Mean ± SE” value [3, 4]?
A: 8795 ± 45.9 Cell/mm^3

Q: And the MDA [3, 5]?
A: 0.94 ± 0.03***^a nmol/g

Q: What about the NP-SH [3, 5] of the same compound?
A: 6.88 ± 0.22***^a nmol/g

Q: What about the “Total Protein” value [3, 5] of the same compound?
A: 129.04 ± 2.80**^a g/l

Q: What about the “side effects on food and water consumption comparing with control group” value ([3]; mice) of the same compound?
A: no negative side effects

Q: What about the “Alkaline phosphatase Mean ± SE” value ([3]; serum, uninfected mice, 12 mg/kg then 6 mg/ml for 2 weeks) of the same compound?
A: 286.62 ± 4.67^a U/L

Q: And the “Bilirubin Mean ± SE” value [3, 6]?
A: 0.57 ± 0.017^a mg/dl

Q: And the “Cholesterol Mean ± SE” value [3, 6]?
A: 78.68 ± 3.2 mg/dL

Q: What about the “GGT Mean ± SE” value [3, 6] of the same compound?
A: 4.40 ± 0.13^a U/L

Q: What about the “Glucose level Mean ± SE” value [3, 6] of the same compound?
A: 96.38 ± 3.62**^a mg/dl

Q: What about the “HDL Mean ± SE” value [3, 6] of the same compound?
A: 41.6 ± 2.1^a mg/dl

Q: What about the “LDH Mean ± SE” value [3, 6] of the same compound?
A: 162.50 ± 1.84^a U/L

Q: And the “LDL Mean ± SE” value [3, 6]?
A: 23.3 ± 3.0 mg/dL

Q: What about the “SGOT(AST) Mean ± SE” value [3, 6] of the same compound?
A: 89.07 ± 3.82 U/L

Q: What about the “SGPT(ALT) Mean ± SE” value [3, 6] of the same compound?
A: 28.67 ± 1.15^a U/L

Q: And the “Total Protein Mean ± SE” value [3, 6]?
A: 7.66 ± 0.18

Q: What about the “Triglycerides Mean ± SE” value [3, 6] of the same compound?
A: 68.5 ± 1.6 mg/dL

Q: What about the “VLDL Mean ± SE” value [3, 6] of the same compound?
A: 13.7 ± 0.3 mg/dL

Q: What about the “mortality in the group treated only with the compound, in words” value ([3]; uninfected mice) of the same compound?
A: close to the control group

Q: What about the daily body weight ([3]; uninfected mice, day 0) of the same compound?
A: 20.20 ± 0.38 gm

Q: What about the “% change in daily body weight” value ([3]; uninfected mice, day 1) of the same compound?
A: 0.49%

Q: What about the Food consumption ([3]; uninfected mice, day 1) of the same compound?
A: 4.2 g/day/mice

Q: And the Mortality ([3]; uninfected mice, day 1)?
A: 0%

Q: What about the Water consumption ([3]; uninfected mice, day 1) of the same compound?
A: 5.2 g/day/mice

Q: What about the daily body weight ([3]; uninfected mice, day 1) of the same compound?
A: 20.30 ± 0.36 gm

Q: And the “% change in daily body weight” value ([3]; uninfected mice, day 2)?
A: 9.40%

Q: And the Food consumption ([3]; uninfected mice, day 2)?
A: 4.5 g/day/mice

Q: And the Mortality ([3]; uninfected mice, day 2)?
A: 0%

Q: And the Water consumption ([3]; uninfected mice, day 2)?
A: 5.2 g/day/mice

Q: And the daily body weight ([3]; uninfected mice, day 2)?
A: 22.10 ± 0.23 gm

Q: And the “% change in daily body weight” value ([3]; uninfected mice, day 3)?
A: 16.83%

Q: What about the Food consumption ([3]; uninfected mice, day 3) of the same compound?
A: 4.4 g/day/mice

Q: What about the Mortality ([3]; uninfected mice, day 3) of the same compound?
A: 0%

Q: What about the Water consumption ([3]; uninfected mice, day 3) of the same compound?
A: 5.4 g/day/mice

Q: And the daily body weight ([3]; uninfected mice, day 3)?
A: 23.60 ± 0.33 gm

Q: And the “% change in daily body weight” value ([3]; uninfected mice, day 4)?
A: 19.80%

Q: What about the Food consumption ([3]; uninfected mice, day 4) of the same compound?
A: 4.5 g/day/mice

Q: And the Mortality ([3]; uninfected mice, day 4)?
A: 0%

Q: What about the Water consumption ([3]; uninfected mice, day 4) of the same compound?
A: 5.5 g/day/mice

Q: And the daily body weight ([3]; uninfected mice, day 4)?
A: 24.20 ± 0.20 gm

Q: And the “% change in daily body weight” value ([3]; uninfected mice, day 5)?
A: 23.26%

Q: What about the Food consumption ([3]; uninfected mice, day 5) of the same compound?
A: 4.6 g/day/mice

Q: What about the Mortality ([3]; uninfected mice, day 5) of the same compound?
A: 0%

Q: And the Water consumption ([3]; uninfected mice, day 5)?
A: 5.5 g/day/mice

Q: And the daily body weight ([3]; uninfected mice, day 5)?
A: 24.90 ± 0.23 gm

Q: What about the “% change in daily body weight” value ([3]; uninfected mice, day 6) of the same compound?
A: 27.22%

Q: And the Food consumption ([3]; uninfected mice, day 6)?
A: 4.6 g/day/mice

Q: And the Mortality ([3]; uninfected mice, day 6)?
A: 0%

Q: What about the Water consumption ([3]; uninfected mice, day 6) of the same compound?
A: 5.7 g/day/mice

Q: And the daily body weight ([3]; uninfected mice, day 6)?
A: 25.70 ± 0.21 gm

Q: What about the “% change in daily body weight” value ([3]; uninfected mice, day 7) of the same compound?
A: 29.70%

Q: What about the Food consumption ([3]; uninfected mice, day 7) of the same compound?
A: 4.8 g/day/mice

Q: What about the Mortality ([3]; uninfected mice, day 7) of the same compound?
A: 0%

Q: What about the Water consumption ([3]; uninfected mice, day 7) of the same compound?
A: 5.8 g/day/mice

Q: And the daily body weight ([3]; uninfected mice, day 7)?
A: 26.20 ± 0.24 gm

Q: And the “% change in daily body weight” value ([3]; uninfected mice, day 8)?
A: 32.17%

Q: What about the Food consumption ([3]; uninfected mice, day 8) of the same compound?
A: 4.9 g/day/mice

Q: And the Mortality ([3]; uninfected mice, day 8)?
A: 0%

Q: And the Water consumption ([3]; uninfected mice, day 8)?
A: 5.8 g/day/mice

Q: What about the daily body weight ([3]; uninfected mice, day 8) of the same compound?
A: 26.70 ± 0.26 gm

Q: And the “% change in daily body weight” value ([3]; uninfected mice, day 9)?
A: 32.67%

Q: And the Food consumption ([3]; uninfected mice, day 9)?
A: 4.9 g/day/mice

Q: And the Mortality ([3]; uninfected mice, day 9)?
A: 0%

Q: What about the Water consumption ([3]; uninfected mice, day 9) of the same compound?
A: 5.9 g/day/mice

Q: What about the daily body weight ([3]; uninfected mice, day 9) of the same compound?
A: 26.80 ± 0.29 gm

Q: What about the “% change in daily body weight” value ([3]; uninfected mice, day 10) of the same compound?
A: 33.66%

Q: And the Food consumption ([3]; uninfected mice, day 10)?
A: 5.1 g/day/mice

Q: And the Mortality ([3]; uninfected mice, day 10)?
A: 0%

Q: What about the Water consumption ([3]; uninfected mice, day 10) of the same compound?
A: 5.9 g/day/mice

Q: What about the daily body weight ([3]; uninfected mice, day 10) of the same compound?
A: 27.00 ± 0.27 gm

Q: What about the “% change in daily body weight” value ([3]; uninfected mice, day 11) of the same compound?
A: 35.64%

Q: What about the Food consumption ([3]; uninfected mice, day 11) of the same compound?
A: 5.2 g/day/mice

Q: What about the Mortality ([3]; uninfected mice, day 11) of the same compound?
A: 0%

Q: And the Water consumption ([3]; uninfected mice, day 11)?
A: 6.0 g/day/mice

Q: What about the daily body weight ([3]; uninfected mice, day 11) of the same compound?
A: 27.40 ± 0.35 gm

Q: And the “% change in daily body weight” value ([3]; uninfected mice, day 12)?
A: 36.96%

Q: What about the Food consumption ([3]; uninfected mice, day 12) of the same compound?
A: 6.0 g/day/mice

Q: What about the Mortality ([3]; uninfected mice, day 12) of the same compound?
A: 0%

Q: And the Water consumption ([3]; uninfected mice, day 12)?
A: 6.11 g/day/mice

Q: What about the daily body weight ([3]; uninfected mice, day 12) of the same compound?
A: 27.66 ± 0.28 gm

Q: What about the “% change in daily body weight” value ([3]; uninfected mice, day 13) of the same compound?
A: 35.51%

Q: What about the Food consumption ([3]; uninfected mice, day 13) of the same compound?
A: 6.0 g/day/mice

Q: What about the Mortality ([3]; uninfected mice, day 13) of the same compound?
A: 10%

Q: And the Water consumption ([3]; uninfected mice, day 13)?
A: 6.2 g/day/mice

Q: And the daily body weight ([3]; uninfected mice, day 13)?
A: 27.77 ± 0.27 gm

Q: What about the “% change in daily body weight” value ([3]; uninfected mice, day 14) of the same compound?
A: 38.61%

Q: And the Food consumption ([3]; uninfected mice, day 14)?
A: 6.1 g/day/mice

Q: And the Mortality ([3]; uninfected mice, day 14)?
A: 10%

Q: And the Water consumption ([3]; uninfected mice, day 14)?
A: 6.2 g/day/mice

Q: And the daily body weight ([3]; uninfected mice, day 14)?
A: 28.00 ± 0.37 gm

Q: And the “% change in daily body weight” value ([3]; uninfected mice, day 15)?
A: 41.70%

Q: What about the Food consumption ([3]; uninfected mice, day 15) of the same compound?
A: 6.1 g/day/mice

Q: And the Mortality ([3]; uninfected mice, day 15)?
A: 10%

Q: And the Water consumption ([3]; uninfected mice, day 15)?
A: 6.3 g/day/mice

Q: What about the daily body weight ([3]; uninfected mice, day 15) of the same compound?
A: 28.62 ± 0.41 gm
